# Data taken from patent US7223759B2, “Antibacterial 3,5-diaminopiperidine-substituted aromatic and heteroaromatic compounds” (Anadys Pharmaceuticals, Inc., priority 2003, dated 2007).
# Tested on: Escherichia coli (ATCC25922) or Staphylococcus aureus (ATCC25923)
# Experiment: Antibacterial MIC, microdilution method in Mueller-Hinton medium
# Type: cell-based
# Details: Escherichia coli, 18 h, MIC in E. coli or S. aureus; two-fold serial dilutions 64 to 0.5 μg/ml in duplicate; 18 hours of incubation at 35° C.; read-out: Potency (MIC)
# In short: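 Read after 18 h incubation at 35° C, MIC is the lowest compound level that blocked growth. Compounds were tested in duplicate over 64–0.5 μg/ml two-fold dilutions using Mueller-Hinton microdilution per NCCLS standard.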
row,SMILES,MIC [µg/mL]
1,"Cc1ccc(S(=O)(=O)N(Cc2ccccc2)c2ccc(Nc3nc(N4CCNCC4)nc(N4C[C@H](N)C[C@H](N)C4)n3)cc2O)cc1 [N-Benzyl-N-{4-[4-((3R,5S)-3,5-diamino-piperidin-1-yl)-6-piperazin-1-yl-[1,3,5]triazin-2-ylamino]-2-hydroxy-phenyl}-4-methyl-benzenesulfonamide]",< 64
2,"Cc1ccc(S(=O)(=O)N(Cc2ccccc2)c2ccc(Nc3nc(N4CCCCC4)nc(N4CCN(c5ccncc5)CC4)n3)cc2O)cc1.Cl [N-Benzyl-N-{4-[4-((3R,5SD)-3,5-diamino-piperidin-1-yl)-6-(4-pyridin-4-yl-piperazin-1-yl)-[1,3,5]triazin-2-ylamino]-2-hydroxy-phenyl}-4-methyl-benzenesulfonamide]",< 16
3,"CN1CCCC1CCNc1nc(N2C[C@H](N)C[C@H](N)C2)nc(N2C[C@H](N)C[C@H](N)C2)n1.Cl (stereo partly drawn) [N-[2-(1-medthyl-pyrrolidin-2-yl)-ethyl]-4,6-Bis-((3R,5S)-3,5-diamino-piperidin-1-yl)-[1,3,5]triazine-2-amine]",> 64

# Same assay, conditions: Escherichia coli, 18 h, read-out: Potency (MIC)
row,SMILES,MIC [µg/mL]
1,"Cc1ccc(S(=O)(=O)N(Cc2ccccc2)c2ccc(Nc3nc(N4C[C@H](N)C[C@H](N)C4)nc(N4C[C@H](CN)C[C@H](CN)C4)n3)c(O)c2)cc1 [N-Benzyl-N-{4-[4-((3S,5R)-3,5-bis-(aminomethyl)-piperidin-1-yl)-6-((3R,5S)-3,5-diamino-piperidin-1-yl)-[1,3,5]triazin-2-ylamino]-3-hydroxy-phenyl}-4-methyl-benzenesulfonamide]",< 64
2,"Cc1ccc(S(=O)(=O)N(Cc2ccccc2)c2ccc(Nc3nc(N(CCN)CCN)nc(N4C[C@H](N)C[C@H](N)C4)n3)c(O)c2)cc1 [N-Benzyl-N-{4-[4-[bis-(2-amino-ethyl)-amino]-6-((3R,5S)-3,5-diamino-piperidin-1-yl)-[1,3,5]triazin-2-ylamino]-3-hydroxy-phenyl}-4-methyl-benzenesulfonamide]",< 64
3,"COc1ccc(NC(=O)c2cccc(O)c2O)c(Nc2nc(N3C[C@H](N)C[C@H](N)C3)nc(N3C[C@H](N)C[C@H](N)C3)n2)c1 [N-[2-(2,3-dihydroxy-benzoylamino)-5-methoxy-phenyl]-4,6-Bis-((3R,5S)-3,5-diamino-piperidin-1-yl)-[1,3,5]triazine-2-amine]",> 64
4,"N[C@@H]1C[C@H](N)CN(c2nc(NCCc3ccc(Cl)cc3Cl)nc(N3C[C@H](N)C[C@H](N)C3)n2)C1 [N-[2-(2,4-dichloro-phenyl)-ethyl]-4,6-Bis-((3R,5S)-3,5-diamino-piperidin-1-yl)-[1,3,5]triazine-2-amine]",> 64
5,"COc1ccc(NC(=O)c2ccc(O)cc2O)c(Nc2nc(N3C[C@H](N)C[C@H](N)C3)nc(N3C[C@H](N)C[C@H](N)C3)n2)c1 [N-[2-(2,4-dihydroxy-benzoylamino)-5-methoxy-phenyl]-4,6-Bis-((3R,5S)-3,5-diamino-piperidin-1-yl)-[1,3,5]triazine-2-amine]",> 64
6,"COc1ccc(NC(=O)c2cccc(C)c2O)c(Nc2nc(N3C[C@H](N)C[C@H](N)C3)nc(N3C[C@H](N)C[C@H](N)C3)n2)c1 [N-[2-(2-hydroxy-3-methyl-benzoylamino)-5-methoxy-phenyl]-4,6-Bis-((3R,5S)-3,5-diamino-piperidin-1-yl)-[1,3,5]triazine-2-amine]",> 64
7,"COc1ccc(Nc2nc(N3C[C@H](N)C[C@H](N)C3)nc(N3C[C@H](N)C[C@H](N)C3)n2)c(NC(=O)c2cccc([N+](=O)[O-])c2O)c1 [N-[2-(2-hydroxy-3-nitro-benzoylamino)-4-methoxy-phenyl]-4,6-Bis-((3R,5S)-3,5-diamino-piperidin-1-yl)-[1,3,5]triazine-2-amine]",> 64
8,"COc1ccc(NC(=O)c2ccc(C)cc2O)c(Nc2nc(N3C[C@H](N)C[C@H](N)C3)nc(N3C[C@H](N)C[C@H](N)C3)n2)c1 [N-[2-(2-hydroxy-4-methyl-benzoylamino)-5-methoxy-phenyl]-4,6-Bis-((3R,5S)-3,5-diamino-piperidin-1-yl)-[1,3,5]triazine-2-amine]",> 64
